According to the NIST ThermoML archive (doi:10.1016/j.jct.2004.10.005):

Test: molar heat capacity at constant pressure
Conditions: 101.33 kPa

BrC12CC3CC(CC(C3)C1)C2 [1-bromotricyclo[3.3.1.1(3,7)]decane]
Conditions	molar heat capacity at constant pressure [J/K/mol]
5 K, Crystal 4, Vacuum adiabatic calorimetry	0.6485
10 K, Crystal 4, Vacuum adiabatic calorimetry	4.755
15 K, Crystal 4, Vacuum adiabatic calorimetry	11.51
20 K, Crystal 4, Vacuum adiabatic calorimetry	18.36
25 K, Crystal 4, Vacuum adiabatic calorimetry	24.35
30 K, Crystal 4, Vacuum adiabatic calorimetry	29.52
31 K, Crystal 3, Vacuum adiabatic calorimetry	30.48
31 K, Crystal 4, Vacuum adiabatic calorimetry	30.48
35 K, Crystal 3, Vacuum adiabatic calorimetry	33.96
40 K, Crystal 3, Vacuum adiabatic calorimetry	37.77
45 K, Crystal 3, Vacuum adiabatic calorimetry	41.08
50 K, Crystal 3, Vacuum adiabatic calorimetry	44.09
60 K, Crystal 3, Vacuum adiabatic calorimetry	49.73
70 K, Crystal 3, Vacuum adiabatic calorimetry	55.13
80 K, Crystal 3, Vacuum adiabatic calorimetry	60.5
90 K, Crystal 3, Vacuum adiabatic calorimetry	65.87
100 K, Crystal 3, Vacuum adiabatic calorimetry	71.25
110 K, Crystal 3, Vacuum adiabatic calorimetry	76.65
120 K, Crystal 3, Vacuum adiabatic calorimetry	82.11
130 K, Crystal 3, Vacuum adiabatic calorimetry	87.63
140 K, Crystal 3, Vacuum adiabatic calorimetry	93.24
150 K, Crystal 3, Vacuum adiabatic calorimetry	99.03
160 K, Crystal 3, Vacuum adiabatic calorimetry	105
170 K, Crystal 3, Vacuum adiabatic calorimetry	111.2
180 K, Crystal 3, Vacuum adiabatic calorimetry	117.7
190 K, Crystal 3, Vacuum adiabatic calorimetry	124.4
200 K, Crystal 3, Vacuum adiabatic calorimetry	131.5
210 K, Crystal 3, Vacuum adiabatic calorimetry	138.9
220 K, Crystal 3, Vacuum adiabatic calorimetry	146.5
230 K, Crystal 3, Vacuum adiabatic calorimetry	154.9
240 K, Crystal 3, Vacuum adiabatic calorimetry	164.8
250 K, Crystal 3, Vacuum adiabatic calorimetry	175.5
260 K, Crystal 3, Vacuum adiabatic calorimetry	185.9
270 K, Crystal 3, Vacuum adiabatic calorimetry	195.4
273.15 K, Crystal 3, Vacuum adiabatic calorimetry	198.1
280 K, Crystal 3, Vacuum adiabatic calorimetry	203.6
282.2 K, Crystal 2, Vacuum adiabatic calorimetry	205.2
282.2 K, Crystal 3, Vacuum adiabatic calorimetry	205.2
290 K, Crystal 2, Vacuum adiabatic calorimetry	210.6
298.15 K, Crystal 2, Vacuum adiabatic calorimetry	215.4
300 K, Crystal 2, Vacuum adiabatic calorimetry	216.5
309.9 K, Crystal 1, Vacuum adiabatic calorimetry	246.3
309.9 K, Crystal 2, Vacuum adiabatic calorimetry	221.9
310 K, Crystal 1, Vacuum adiabatic calorimetry	246.5
320 K, Crystal 1, Vacuum adiabatic calorimetry	257.5
330 K, Crystal 1, Large sample (1 g) DSC	279.7
340 K, Crystal 1, Large sample (1 g) DSC	297
350 K, Crystal 1, Large sample (1 g) DSC	302.1
360 K, Crystal 1, Large sample (1 g) DSC	305.2
370 K, Crystal 1, Large sample (1 g) DSC	305.7
380 K, Crystal 1, Large sample (1 g) DSC	305.9
390 K, Crystal 1, Large sample (1 g) DSC	306.1
391.8 K, Crystal 1, Large sample (1 g) DSC	306.1

Liquid, Large sample (1 g) DSC
Conditions	molar heat capacity at constant pressure [J/K/mol]
391.8 K	311.4
400 K	311.6
410 K	312
420 K	312.3
430 K	312.7
